What was measured:
SY5Y-TrkB cells = assay: SY5Y-TrkB xenograft study: tumor growth and event-free survival; type: in vivo, athymic nu/nu mice; conditions: oral
Procedure: N-[5-(3,5-difluorobenzyl)-1H-indazol-3-yl]-4-(4-methyl-piperazin-1-yl)-2-(tetrahydro-2H-pyran-4-ylamino) benzamide_was dissolved in DMSO to obtain stocks for in vitro studies. For in vivo xenograft experiments, N-[5-(3,5-difluorobenzyl)-1H-indazol-3-yl]-4-(4-methyl-piperazin-1-yl)-2-(tetrahydro-2H-pyran-4-ylamino) benzamide was reconstituted in 0.5% methyl cellulose (Sigma-Aldrich, viscosity 400 cP, 2% in H2O) containing 1% Tween 80 at a final dosing volume of 10 mL per kg. Prior to dosing, the formulation was stirred at room temperature for 30 min, and then sonicated in a water bath sonicator for 20 min. The formulation was made fresh every week. For the in vivo study, the animals were dosed with the formulation of N-[5-(3,5-difluorobenzyl)-1H-indazol-3-yl]-4-(4-methyl-piperazin-1-yl)-2-(tetrahydro-2H-pyran-4-ylamino) benzamide twice a day (BID) for 7 days per week at a dose of 60 mg per kg.
Xenograft studies were performed using SH-SY5Y cells stably transfected with TrkB. Cells were grown in RPMI-1640 medium containing 10% fetal bovine serum and maintained in 150 cm^3 Costar culture flasks in a humidified atmosphere of 95% air and 5% CO2. Cells were harvested using 0.2% tetra sodium EDTA in phosphate buffered saline (PBS).
Six-week-old athymic nu/nu mice were obtained from Jackson Laboratories. Mice were maintained at five per cage under humidity- and temperature-controlled conditions in a light/dark cycle that was set at 12-hour intervals.
For in vivo xenograft studies, six-week-old athymic nu/nu mice were injected subcutaneously in the flank with 1×10^7 SY5Y-TrkB cells in 0.1 ml of Matrigel (BD Bioscience, Palo Alto, Calif.). Tumors were measured 2 times per week in 3 dimensions, and the volume calculated as follows: [(0.523×L×W×W)/1000]. Body weights of the mice were obtained every week and the dose of the tested compounds were adjusted accordingly. […]

[1] = test system: TrkB-expressing neuroblastoma cells (SH-SY5Y cells stably transfected with TrkB); assay: Sulphorhodamine B (SRB) assay, survival and growth of TrkB-expressing neuroblastoma cells; type: cell-based; conditions: single agent; 1-100 nM; 100 ng per mL BDNF; 24, 48, 72 hours

CN1CCN(c2ccc(C(=O)Nc3n[nH]c4ccc(Cc5cc(F)cc(F)c5)cc34)c(NC3CCOCC3)c2)CC1 [N-[5-(3,5-difluorobenzyl)-1H-indazol-3-yl]-4-(4-methyl-piperazin-1-yl)-2-(tetrahydro-2H-pyran-4-ylamino) benzamide]
Estimated slope from linear mixed effects model (increase of log tumor volume) (SY5Y-TrkB cells; Control vs Group 2 analysis (FIG. 3), Group 2: alone, 60 mg per kg, twice per day, 7 times per week): 0.0973 per day in the log of tumor volume
Estimated slope of trace in FIG. 1, linear mixed effects model (SY5Y-TrkB cells; Group 2: alone, 60 mg per kg, twice per day, 7 times per week): 0.0696 per day in the log of tumor volume
tumor growth inhibition compared to control animals (SY5Y-TrkB cells; single agent therapy, 60 mg per kg BID): significant tumor growth inhibition
inhibition of growth of TrkB-expressing NB cells in vitro [1]: significantly inhibited growth
